Data from doi:10.1101/2020.06.11.145995v1 (biorxiv, 2020).
Read-outs that look alike come from different tables or passages of the source. Values belong to the compound of their own block, whether it stands above or below them.

Assays:
Assay in all cases: biochemical
ACVR2A = ACVR2A (Homo sapiens, UniProt P27037)
ACVR2B = ACVR2B (Homo sapiens, UniProt Q13705)
ASK1 = ASK1 (Homo sapiens, UniProt Q99683)
AURKA = AURKA (Homo sapiens, UniProt O14965)
BLK = BLK (Homo sapiens, UniProt P51451)
BMPR1A = BMPR1A (Homo sapiens, UniProt P36894)
BRSK2 = BRSK2 (Homo sapiens, UniProt Q8IWQ3)
BTK = BTK (Homo sapiens, UniProt Q06187)
CAMK2D = CAMK2D (Homo sapiens, UniProt Q13557)
CDKL2 = CDKL2 (Homo sapiens, UniProt Q92772)
CLK3 = CLK3 (Homo sapiens, UniProt P49761)
CSK = CSK (Homo sapiens, UniProt P41240)
CSNK1D = CSNK1D (Homo sapiens, UniProt P48730)
CSNK1E = CSNK1E (Homo sapiens, UniProt P49674)
DDR2 = DDR2 (Homo sapiens, UniProt Q16832)
DMPK = DMPK (Homo sapiens, UniProt Q09013)
FLT3 = FLT3 (Homo sapiens, UniProt P36888)
HCK = HCK (Homo sapiens, UniProt P08631)
ICK = ICK (Homo sapiens, UniProt Q9UPZ9)
IGF1R = IGF1R (Homo sapiens, UniProt P08069)
IKK-epsilon = IKK-epsilon (Homo sapiens, UniProt Q14164)
JNK2 = JNK2 (Homo sapiens, UniProt P45984)
KIT(D816H) = KIT(D816H) (Homo sapiens, UniProt P10721, D816H)
KIT(D816V) = KIT(D816V) (Homo sapiens, UniProt P10721, D816V)
KIT(L576P) = KIT(L576P) (Homo sapiens, UniProt P10721, L576P)
LATS1 = LATS1 (Homo sapiens, UniProt O95835)
MAP4K4 = MAP4K4 (Homo sapiens, UniProt O95819)
MEK4 = MEK4 (Homo sapiens, UniProt P45985)
MLK1 = MLK1 (Homo sapiens, UniProt P80192)
MRCKB = MRCKB (Homo sapiens, UniProt Q9Y5S2)
[1] = read-out: CPT-1-70-1 (1uM) % control
[2] = read-out: HYJ-2-002-1 (1uM) % control

Chain of JNK2 (P45984 whole entry): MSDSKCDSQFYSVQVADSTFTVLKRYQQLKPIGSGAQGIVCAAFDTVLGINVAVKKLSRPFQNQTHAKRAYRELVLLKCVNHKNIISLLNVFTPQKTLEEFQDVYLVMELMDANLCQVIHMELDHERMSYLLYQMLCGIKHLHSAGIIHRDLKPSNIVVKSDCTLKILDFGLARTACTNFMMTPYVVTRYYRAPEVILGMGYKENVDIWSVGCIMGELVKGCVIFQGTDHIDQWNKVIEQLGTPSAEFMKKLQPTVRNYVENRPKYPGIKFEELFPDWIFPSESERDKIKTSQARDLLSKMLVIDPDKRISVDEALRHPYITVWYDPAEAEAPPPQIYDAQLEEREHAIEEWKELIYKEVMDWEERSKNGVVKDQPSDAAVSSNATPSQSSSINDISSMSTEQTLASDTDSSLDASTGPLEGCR
Chain of IKK-epsilon (Q14164 whole entry): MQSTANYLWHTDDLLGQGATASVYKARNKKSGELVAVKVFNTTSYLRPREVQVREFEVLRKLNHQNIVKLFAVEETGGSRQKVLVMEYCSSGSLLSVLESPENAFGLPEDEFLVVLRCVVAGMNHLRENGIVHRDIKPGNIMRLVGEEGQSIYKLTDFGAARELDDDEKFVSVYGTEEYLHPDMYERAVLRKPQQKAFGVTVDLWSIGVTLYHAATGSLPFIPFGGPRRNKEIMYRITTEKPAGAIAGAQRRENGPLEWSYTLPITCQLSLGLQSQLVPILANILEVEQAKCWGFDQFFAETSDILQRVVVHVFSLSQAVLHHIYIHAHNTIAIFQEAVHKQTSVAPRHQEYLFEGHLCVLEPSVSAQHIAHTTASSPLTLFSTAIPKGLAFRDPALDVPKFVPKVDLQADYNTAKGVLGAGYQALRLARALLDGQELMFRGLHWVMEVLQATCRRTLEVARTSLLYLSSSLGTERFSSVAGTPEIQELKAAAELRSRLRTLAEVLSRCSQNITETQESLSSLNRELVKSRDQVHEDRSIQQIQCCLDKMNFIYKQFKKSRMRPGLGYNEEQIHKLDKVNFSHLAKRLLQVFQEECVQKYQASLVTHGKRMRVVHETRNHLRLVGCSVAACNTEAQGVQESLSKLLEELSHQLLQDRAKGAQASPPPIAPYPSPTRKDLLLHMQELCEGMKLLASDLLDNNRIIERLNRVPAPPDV
Chain of BTK (Q06187 whole entry): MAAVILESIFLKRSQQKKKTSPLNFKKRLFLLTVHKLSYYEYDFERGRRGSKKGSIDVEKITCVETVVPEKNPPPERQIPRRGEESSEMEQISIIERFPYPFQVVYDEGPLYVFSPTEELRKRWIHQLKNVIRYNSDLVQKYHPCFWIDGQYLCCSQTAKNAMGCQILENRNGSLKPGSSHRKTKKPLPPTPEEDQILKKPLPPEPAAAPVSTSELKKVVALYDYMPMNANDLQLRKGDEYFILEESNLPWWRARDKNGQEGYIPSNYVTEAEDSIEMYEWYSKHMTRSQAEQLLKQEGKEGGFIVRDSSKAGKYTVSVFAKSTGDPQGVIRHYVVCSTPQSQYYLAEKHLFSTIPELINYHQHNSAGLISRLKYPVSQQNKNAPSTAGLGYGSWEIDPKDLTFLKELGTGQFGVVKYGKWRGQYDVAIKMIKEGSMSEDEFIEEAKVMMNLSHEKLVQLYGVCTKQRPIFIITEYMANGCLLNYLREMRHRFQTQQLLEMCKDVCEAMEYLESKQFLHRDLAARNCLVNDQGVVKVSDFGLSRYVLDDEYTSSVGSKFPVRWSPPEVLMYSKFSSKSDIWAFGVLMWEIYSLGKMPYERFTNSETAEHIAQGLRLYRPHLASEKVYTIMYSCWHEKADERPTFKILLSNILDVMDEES
Chain of ICK (Q9UPZ9 whole entry): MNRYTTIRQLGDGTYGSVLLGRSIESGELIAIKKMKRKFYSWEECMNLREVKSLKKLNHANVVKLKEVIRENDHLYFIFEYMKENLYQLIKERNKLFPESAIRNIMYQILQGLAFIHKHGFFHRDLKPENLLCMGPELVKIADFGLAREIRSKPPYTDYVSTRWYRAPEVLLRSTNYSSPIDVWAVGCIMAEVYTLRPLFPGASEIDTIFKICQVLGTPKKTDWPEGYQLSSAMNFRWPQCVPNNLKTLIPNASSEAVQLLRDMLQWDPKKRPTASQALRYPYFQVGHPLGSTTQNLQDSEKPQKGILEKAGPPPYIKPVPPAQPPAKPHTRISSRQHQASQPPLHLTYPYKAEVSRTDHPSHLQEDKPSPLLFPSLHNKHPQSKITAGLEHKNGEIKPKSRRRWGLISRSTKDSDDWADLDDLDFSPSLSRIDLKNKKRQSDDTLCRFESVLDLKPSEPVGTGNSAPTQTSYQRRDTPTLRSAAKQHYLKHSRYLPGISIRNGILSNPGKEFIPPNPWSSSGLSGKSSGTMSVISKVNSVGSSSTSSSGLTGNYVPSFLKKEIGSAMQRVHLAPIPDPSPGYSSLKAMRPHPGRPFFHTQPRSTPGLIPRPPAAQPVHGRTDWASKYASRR
Chain of ASK1 (Q99683 whole entry): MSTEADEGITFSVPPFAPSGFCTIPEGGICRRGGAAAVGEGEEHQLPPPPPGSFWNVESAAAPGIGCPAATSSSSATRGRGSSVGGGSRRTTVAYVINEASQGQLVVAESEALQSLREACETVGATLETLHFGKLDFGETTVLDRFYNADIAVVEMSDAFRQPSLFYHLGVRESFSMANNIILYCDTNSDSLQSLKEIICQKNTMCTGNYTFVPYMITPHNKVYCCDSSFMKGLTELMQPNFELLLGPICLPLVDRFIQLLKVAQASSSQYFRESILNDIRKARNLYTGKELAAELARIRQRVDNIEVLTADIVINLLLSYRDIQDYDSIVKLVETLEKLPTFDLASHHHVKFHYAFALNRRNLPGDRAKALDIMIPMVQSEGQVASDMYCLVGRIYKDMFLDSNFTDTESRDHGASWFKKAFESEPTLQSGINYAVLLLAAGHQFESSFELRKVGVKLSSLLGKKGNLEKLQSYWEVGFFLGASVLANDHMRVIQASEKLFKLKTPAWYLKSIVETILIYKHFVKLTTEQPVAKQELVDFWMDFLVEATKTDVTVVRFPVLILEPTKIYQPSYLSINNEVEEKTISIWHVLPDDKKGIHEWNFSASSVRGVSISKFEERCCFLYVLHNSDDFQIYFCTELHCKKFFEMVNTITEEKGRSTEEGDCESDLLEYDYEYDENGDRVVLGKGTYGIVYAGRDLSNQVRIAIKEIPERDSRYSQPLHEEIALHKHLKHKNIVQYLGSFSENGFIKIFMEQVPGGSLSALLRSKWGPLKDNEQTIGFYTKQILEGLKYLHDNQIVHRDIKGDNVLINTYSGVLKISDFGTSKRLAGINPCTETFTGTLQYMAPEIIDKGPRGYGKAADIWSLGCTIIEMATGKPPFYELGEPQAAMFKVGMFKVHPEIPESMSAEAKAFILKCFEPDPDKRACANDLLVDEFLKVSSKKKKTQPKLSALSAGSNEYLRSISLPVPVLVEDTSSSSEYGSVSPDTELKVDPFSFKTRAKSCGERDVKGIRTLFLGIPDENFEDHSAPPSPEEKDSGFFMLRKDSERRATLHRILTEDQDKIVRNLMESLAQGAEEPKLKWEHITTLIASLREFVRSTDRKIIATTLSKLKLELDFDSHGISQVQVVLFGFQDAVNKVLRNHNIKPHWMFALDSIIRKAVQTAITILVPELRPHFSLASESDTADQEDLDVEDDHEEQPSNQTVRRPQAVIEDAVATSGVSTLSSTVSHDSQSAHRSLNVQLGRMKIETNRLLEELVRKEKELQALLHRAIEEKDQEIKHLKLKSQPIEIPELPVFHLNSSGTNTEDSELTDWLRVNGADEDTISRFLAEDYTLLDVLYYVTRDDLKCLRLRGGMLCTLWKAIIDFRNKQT
Chain of CAMK2D (Q13557 whole entry): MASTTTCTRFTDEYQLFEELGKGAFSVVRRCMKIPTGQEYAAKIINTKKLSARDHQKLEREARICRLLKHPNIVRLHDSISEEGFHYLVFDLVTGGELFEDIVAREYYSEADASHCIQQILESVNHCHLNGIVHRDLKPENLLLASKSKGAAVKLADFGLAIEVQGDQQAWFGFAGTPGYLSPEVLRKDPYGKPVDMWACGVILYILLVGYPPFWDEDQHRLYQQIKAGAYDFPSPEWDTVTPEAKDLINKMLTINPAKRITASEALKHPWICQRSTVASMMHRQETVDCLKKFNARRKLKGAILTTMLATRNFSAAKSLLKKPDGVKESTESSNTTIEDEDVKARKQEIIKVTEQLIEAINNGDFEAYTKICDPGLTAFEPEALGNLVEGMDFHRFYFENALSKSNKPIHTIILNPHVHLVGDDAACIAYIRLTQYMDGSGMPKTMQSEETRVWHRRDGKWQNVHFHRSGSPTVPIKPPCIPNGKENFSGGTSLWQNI
Chain of HCK (P08631 whole entry): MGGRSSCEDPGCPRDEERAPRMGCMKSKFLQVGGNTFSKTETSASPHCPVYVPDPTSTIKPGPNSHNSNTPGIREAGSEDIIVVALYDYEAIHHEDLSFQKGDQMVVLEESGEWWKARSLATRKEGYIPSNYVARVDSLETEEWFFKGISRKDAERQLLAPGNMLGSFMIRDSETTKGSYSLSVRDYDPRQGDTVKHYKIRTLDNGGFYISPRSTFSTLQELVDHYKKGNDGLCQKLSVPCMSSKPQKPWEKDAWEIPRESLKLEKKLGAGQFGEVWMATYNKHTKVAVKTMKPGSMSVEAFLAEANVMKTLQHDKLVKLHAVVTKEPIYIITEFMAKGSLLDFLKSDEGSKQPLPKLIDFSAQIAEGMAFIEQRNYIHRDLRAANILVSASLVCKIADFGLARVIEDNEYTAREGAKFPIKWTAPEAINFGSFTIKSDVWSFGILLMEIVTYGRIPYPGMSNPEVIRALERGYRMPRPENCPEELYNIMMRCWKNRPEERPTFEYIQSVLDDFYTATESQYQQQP

SMILES: CN1CCN(c2ccc(Nc3nc(Oc4ccc(NC(=O)CCl)cc4)c4cc[nH]c4n3)cc2)CC1 [CPT1-70-1]
remaining activity at 1 µM (ACVR2A; [1]): 100%
remaining activity at 1 µM (ACVR2B; [1]): 100%
remaining activity at 1 µM (ASK1; [1]): 100%
remaining activity at 1 µM (AURKA; [1]): 37%
remaining activity at 1 µM (BLK; [1]): 1.6%
remaining activity at 1 µM (BMPR1A; [1]): 100%
remaining activity at 1 µM (BRSK2; [1]): 97%
remaining activity at 1 µM (BTK; [1]): 7%
remaining activity at 1 µM (CAMK2D; [1]): 100%
remaining activity at 1 µM (CDKL2; [1]): 11%
remaining activity at 1 µM (CLK3; [1]): 82%
remaining activity at 1 µM (CSK; [1]): 93%
remaining activity at 1 µM (CSNK1D; [1]): 43%
remaining activity at 1 µM (CSNK1E; [1]): 18%
remaining activity at 1 µM (DDR2; [1]): 100%
remaining activity at 1 µM (DMPK; [1]): 41%
remaining activity at 1 µM (FLT3; [1]): 3%
remaining activity at 1 µM (HCK; [1]): 85%
remaining activity at 1 µM (ICK; [1]): 100%
remaining activity at 1 µM (IGF1R; [1]): 62%
remaining activity at 1 µM (IKK-epsilon; [1]): 100%
remaining activity at 1 µM (JNK2; [1]): 13%
remaining activity at 1 µM (KIT(D816H); [1]): 83%
remaining activity at 1 µM (KIT(D816V); [1]): 60%
remaining activity at 1 µM (KIT(L576P); [1]): 8.9%
remaining activity at 1 µM (LATS1; [1]): 77%
remaining activity at 1 µM (MAP4K4; [1]): 49%
remaining activity at 1 µM (MEK4; [1]): 35%
remaining activity at 1 µM (MLK1; [1]): 9%
remaining activity at 1 µM (MRCKB; [1]): 100%

remaining activity at 1 µM (ACVR2A; [2]): 100%
remaining activity at 1 µM (ACVR2B; [2]): 100%
remaining activity at 1 µM (ASK1; [2]): 96%
remaining activity at 1 µM (AURKA; [2]): 100%
remaining activity at 1 µM (BLK; [2]): 0.1%
remaining activity at 1 µM (BMPR1A; [2]): 100%
remaining activity at 1 µM (BRSK2; [2]): 91%
remaining activity at 1 µM (BTK; [2]): 8.1%
remaining activity at 1 µM (CAMK2D; [2]): 100%
remaining activity at 1 µM (CDKL2; [2]): 2.3%
remaining activity at 1 µM (CLK3; [2]): 88%
remaining activity at 1 µM (CSK; [2]): 0.8%
remaining activity at 1 µM (CSNK1D; [2]): 73%
remaining activity at 1 µM (CSNK1E; [2]): 75%
remaining activity at 1 µM (DDR2; [2]): 0.05%
remaining activity at 1 µM (DMPK; [2]): 100%
remaining activity at 1 µM (FLT3; [2]): 0.5%
remaining activity at 1 µM (HCK; [2]): 0.55%
remaining activity at 1 µM (ICK; [2]): 100%
remaining activity at 1 µM (IGF1R; [2]): 100%
remaining activity at 1 µM (IKK-epsilon; [2]): 94%
remaining activity at 1 µM (JNK2; [2]): 1.8%
remaining activity at 1 µM (KIT(D816H); [2]): 43%
remaining activity at 1 µM (KIT(D816V); [2]): 9.2%
remaining activity at 1 µM (KIT(L576P); [2]): 82%
remaining activity at 1 µM (LATS1; [2]): 100%
remaining activity at 1 µM (MAP4K4; [2]): 11%
remaining activity at 1 µM (MEK4; [2]): 100%
remaining activity at 1 µM (MLK1; [2]): 100%
remaining activity at 1 µM (MRCKB; [2]): 100%
SMILES: CCN1CCN(Cc2ccc(NC(=O)c3ccc(C)c(CCc4cnc5[nH]ccc5c4OC)c3)cc2C(F)(F)F)CC1 [HYJ-2-002-1]
